In patent US9586961B2, “Homopiperazine derivatives as protein tyrosine kinase inhibitors and pharmaceutical use thereof” (LEO PHARMA A/S, priority 2010, dated 2017):

Experiments:
Assay type in all cases: biochemical
JAK2 = target: T1, JAK2 (Homo sapiens, UniProt O60674); test: JAK2 kinase assay (HTRF, inhibition of phosphorylation of a synthetic peptide); details: catalytic domain, His-tag; 4 μM ATP (Km); read-out: JAK2 kinase inhibitory activity (EC50)
T1 construct: All four purified enzymes contain only the catalytic domain; His (N); purchased Carna Biosciences, Inc; host or cells: baculovirus expression system
How it was run: (§1)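 HTRF detection (streptavidin-XL665, cryptate anti-phospho antibody, overnight in the dark) after EDTA stop of a 20-30 min RT reaction on 1 μM TK substrate-biotin. Km-level ATP per kinase: 7 μM for JAK1 and 13 μM for TYK2, both N-terminal GST, with 50 nM SEB; 4 μM for JAK2 and 2 μM for JAK3, both His-tagged. Catalytic domains only; DMSO 0.75%.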

JAK1 = target: T2, JAK1 (Homo sapiens, UniProt P23458); test: JAK1 kinase assay (HTRF, inhibition of phosphorylation of a synthetic peptide); details: catalytic domain aa 850-1154, GST-tag; 7 μM ATP (Km); read-out: JAK1 kinase inhibitory activity (EC50)
T2 construct: JAK1 (aa 850-1154) and TYK2 (aa 871-1187) are expressed with an N-terminally fused GST-tag; GST (N); purchased Carna Biosciences, Inc; host or cells: baculovirus expression system
How it was run: as §1

JAK3 = target: T3, JAK3 (Homo sapiens, UniProt P52333); test: JAK3 kinase assay (HTRF, inhibition of phosphorylation of a synthetic peptide); details: catalytic domain, His-tag; 2 μM ATP (Km); read-out: JAK3 kinase inhibitory activity (EC50)
T3 construct: All four purified enzymes contain only the catalytic domain; His (N); purchased Carna Biosciences, Inc; host or cells: baculovirus expression system
How it was run: as §1

T3 sequence (P52333 822-1111 limits assumed): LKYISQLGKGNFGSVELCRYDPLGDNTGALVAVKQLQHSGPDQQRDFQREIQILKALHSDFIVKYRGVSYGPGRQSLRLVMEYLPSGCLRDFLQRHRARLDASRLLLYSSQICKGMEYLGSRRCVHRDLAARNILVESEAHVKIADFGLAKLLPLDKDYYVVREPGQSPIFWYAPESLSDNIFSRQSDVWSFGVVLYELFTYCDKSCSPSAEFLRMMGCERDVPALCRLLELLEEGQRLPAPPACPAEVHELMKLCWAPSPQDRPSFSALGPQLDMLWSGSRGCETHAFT
T2 sequence (P23458 850-1154): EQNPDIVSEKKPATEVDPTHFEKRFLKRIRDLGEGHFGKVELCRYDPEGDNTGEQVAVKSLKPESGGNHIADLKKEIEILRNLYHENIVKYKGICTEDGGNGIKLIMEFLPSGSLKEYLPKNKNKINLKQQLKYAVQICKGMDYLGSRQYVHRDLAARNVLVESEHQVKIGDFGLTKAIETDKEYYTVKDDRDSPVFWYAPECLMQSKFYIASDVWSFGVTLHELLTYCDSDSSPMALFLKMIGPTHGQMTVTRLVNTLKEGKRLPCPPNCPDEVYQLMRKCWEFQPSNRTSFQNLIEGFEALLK
T1 sequence (O60674 849-1124 limits assumed): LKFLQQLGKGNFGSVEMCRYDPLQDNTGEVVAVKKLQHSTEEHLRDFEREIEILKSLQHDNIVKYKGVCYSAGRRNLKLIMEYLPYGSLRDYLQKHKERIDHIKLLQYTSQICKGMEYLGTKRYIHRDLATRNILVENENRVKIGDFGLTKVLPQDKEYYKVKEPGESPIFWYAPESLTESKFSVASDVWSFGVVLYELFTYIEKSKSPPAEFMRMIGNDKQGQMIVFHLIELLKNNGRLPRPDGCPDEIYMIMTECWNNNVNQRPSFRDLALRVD

EC50 (JAK2) [nM] | EC50 (JAK1) [nM] | EC50 (JAK3) [nM] | SMILES
< 100 | < 100 | 100 to 1000 | N#Cc1c[nH]c(C(=O)N2CCN(c3ncnc4[nH]ccc34)CC3(CC3)C2)c1 [Example 208, 5-[5-(7H-pyrrolo[2,3-d]pyrimidin-4-yl)-5,8-diazaspiro[2.6]nonane-8-carbonyl]-1H-pyrrole-3-carbonitrile]
100 to 1000 | 100 to 1000 | 100 to 1000 | O=C(c1cnsc1)N1CCN(c2ncnc3[nH]ccc23)CC2(CC2)C1 [Example 210, isothiazol-4-yl-[5-(7H-pyrrolo[2,3-d]pyrimidin-4-yl)-5,8-diazaspiro[2.6]nonan-8-yl]methanone]
100 to 1000 | 100 to 1000 | 100 to 1000 | O=C(c1cnsc1)N1CCCN(c2ncnc3[nH]ccc23)CC12CC2 [Example 211, isothiazol-4-yl-[5-(7H-pyrrolo[2,3-d]pyrimidin-4-yl)-5,9-diazaspiro[2.6]nonan-9-yl]methanone]
100 to 1000 | 100 to 1000 | 100 to 1000 | O=C(c1cc(O)[nH]n1)N1CCCN(c2ncnc3[nH]ccc23)CC12CC2 [Example 212, (5-hydroxy-1H-pyrazol-3-yl)-[5-(7H-pyrrolo[2,3-d]pyrimidin-4-yl)-5,9-diazaspiro[2.6]nonan-9-yl]methanone]
100 to 1000 | 100 to 1000 | > 1000 | O=C(c1cncc(F)c1)N1CCN(c2ncnc3[nH]ccc23)CC2(CC2)C1 [Example 213, (5-fluoro-3-pyridyl)-[5-(7H-pyrrolo[2,3-d]pyrimidin-4-yl)-5,8-diazaspiro[2.6]nonan-8-yl]methanone]
100 to 1000 | 100 to 1000 | 100 to 1000 | O=C(c1cncc(F)c1)N1CCCN(c2ncnc3[nH]ccc23)CC12CC2 [Example 214, (5-fluoro-3-pyridyl)-[5-(7H-pyrrolo[2,3-d]pyrimidin-4-yl)-5,9-diazaspiro[2.6]nonan-9-yl]methanone]
< 100 | < 100 | 100 to 1000 | O=C(Cc1nnn[nH]1)N1CCN(c2ncnc3[nH]ccc23)CC2(CC2)C1 [Example 215, 1-[5-(7H-pyrrolo[2,3-d]pyrimidin-4-yl)-5,8-diazaspiro[2.6]nonan-8-yl]-2-(1H-tetrazol-5-yl)ethanone]
100 to 1000 | 100 to 1000 | 100 to 1000 | O=C(c1cscn1)N1CCN(c2ncnc3[nH]ccc23)CC2(CC2)C1 [Example 216, [5-(7H-pyrrolo[2,3-d]pyrimidin-4-yl)-5,8-diazaspiro[2.6]nonan-8-yl]-thiazol-4-yl-methanone]
100 to 1000 | 100 to 1000 | > 1000 | Cc1cc(CC(=O)N2CCCN(c3ncnc4[nH]ccc34)CC23CC3)on1 [Example 217, 2-(3-methylisoxazol-5-yl)-1-[5-(7H-pyrrolo[2,3-d]pyrimidin-4-yl)-5,9-diazaspiro[2.6]nonan-9-yl]ethanone]
< 100 | 100 to 1000 | 100 to 1000 | CN(CC#N)C(=O)N1CCN(c2ncnc3[nH]ccc23)CC2(CC2)C1 [Example 218, N-(cyanomethyl)-N-methyl-5-(7H-pyrrolo[2,3-d]pyrimidin-4-yl)-5,8-diazaspiro[2.6]nonane-8-carboxamide]
< 100 | 100 to 1000 | 100 to 1000 | N#CCN(CC#N)C(=O)N1CCN(c2ncnc3[nH]ccc23)CC2(CC2)C1 [Example 219, N,N-bis(cyanomethyl)-5-(7H-pyrrolo[2,3-d]pyrimidin-4-yl)-5,8-diazaspiro[2.6]nonane-8-carboxamide]
100 to 1000 | 100 to 1000 | 100 to 1000 | CN(CCC#N)C(=O)N1CCN(c2ncnc3[nH]ccc23)CC2(CC2)C1 [Example 220, N-(2-cyanoethyl)-N-methyl-5-(7H-pyrrolo[2,3-d]pyrimidin-4-yl)-5,8-diazaspiro[2.6]nonane-8-carboxamide]
< 100 | 100 to 1000 | 100 to 1000 | N#C[C@H]1CCCN1C(=O)N1CCN(c2ncnc3[nH]ccc23)CC2(CC2)C1 [Example 221, (2R)-1-[5-(7H-pyrrolo[2,3-d]pyrimidin-4-yl)-5,8-diazaspiro[2.6]nonane-8-carbonyl]pyrrolidine-2-carbonitrile]
< 100 | 100 to 1000 | 100 to 1000 | N#C[C@@H]1CCCN1C(=O)N1CCN(c2ncnc3[nH]ccc23)CC2(CC2)C1 [Example 222, (2S)-1-[5-(7H-pyrrolo[2,3-d]pyrimidin-4-yl)-5,8-diazaspiro[2.6]nonane-8-carbonyl]pyrrolidine-2-carbonitrile]
100 to 1000 | 100 to 1000 | 100 to 1000 | CC(C)N(C)C(=O)N1CCN(c2ncnc3[nH]ccc23)CC2(CC2)C1 [Example 223, N-isopropyl-N-methyl-5-(7H-pyrrolo[2,3-d]pyrimidin-4-yl)-5,8-diazaspiro[2.6]nonane-8-carboxamide]
100 to 1000 | > 1000 | 100 to 1000 | CCN(CCC#N)C(=O)N1CCN(c2ncnc3[nH]ccc23)CC2(CC2)C1 [Example 224, N-(2-cyanoethyl)-N-ethyl-5-(7H-pyrrolo[2,3-d]pyrimidin-4-yl)-5,8-diazaspiro[2.6]nonane-8-carboxamide]
100 to 1000 | > 1000 | 100 to 1000 | N#CCCN(CCC#N)C(=O)N1CCN(c2ncnc3[nH]ccc23)CC2(CC2)C1 [Example 225, N,N-bis(2-cyanoethyl)-5-(7H-pyrrolo[2,3-d]pyrimidin-4-yl)-5,8-diazaspiro[2.6]nonane-8-carboxamide]
100 to 1000 | > 1000 | > 1000 | O=C(Cc1nnn[nH]1)N1CCCN(c2ncnc3[nH]ccc23)CC12CC2 [Example 226, 1-[5-(7H-pyrrolo[2,3-d]pyrimidin-4-yl)-5,9-diazaspiro[2.6]nonan-9-yl]-2-(1H-tetrazol-5-yl)ethanone]
< 100 | 100 to 1000 | 100 to 1000 | O=C(c1cscn1)N1CCCN(c2ncnc3[nH]ccc23)CC12CC2 [Example 227, [5-(7H-pyrrolo[2,3-d]pyrimidin-4-yl)-5,9-diazaspiro[2.6]nonan-9-yl]-thiazol-4-yl-methanone]
100 to 1000 | 100 to 1000 | > 1000 | O=C(c1nc[nH]n1)N1CCCN(c2ncnc3[nH]ccc23)CC12CC2 [Example 228, [5-(7H-pyrrolo[2,3-d]pyrimidin-4-yl)-5,9-diazaspiro[2.6]nonan-9-yl]-(1H-1,2,4-triazol-3-yl)methanone]
100 to 1000 | 100 to 1000 | > 1000 | Cc1sncc1C(=O)N1CCN(c2ncnc3[nH]ccc23)CC2(CC2)C1 [Example 229, (5-methylisothiazol-4-yl)-[5-(7H-pyrrolo[2,3-d]pyrimidin-4-yl)-5,8-diazaspiro[2.6]nonan-8-yl]methanone]
< 100 | 100 to 1000 | 100 to 1000 | Cc1sncc1C(=O)N1CCCN(c2ncnc3[nH]ccc23)CC12CC2 [Example 230, (5-methylisothiazol-4-yl)-[5-(7H-pyrrolo[2,3-d]pyrimidin-4-yl)-5,9-diazaspiro[2.6]nonan-9-yl]methanone]
100 to 1000 | 100 to 1000 | 100 to 1000 | O=C(c1n[nH]c(Cl)n1)N1CCN(c2ncnc3[nH]ccc23)CC2(CC2)C1 [Example 231, (5-chloro-1H-1,2,4-triazol-3-yl)-[5-(7H-pyrrolo[2,3-d]pyrimidin-4-yl)-5,8-diazaspiro[2.6]nonan-8-yl]methanone]
< 100 | 100 to 1000 | 100 to 1000 | O=C(c1n[nH]c(Cl)n1)N1CCCN(c2ncnc3[nH]ccc23)CC12CC2 [Example 232, (5-chloro-1H-1,2,4-triazol-3-yl)-[5-(7H-pyrrolo[2,3-d]pyrimidin-4-yl)-5,9-diazaspiro[2.6]nonan-9-yl]methanone]
100 to 1000 | 100 to 1000 | > 1000 | Cc1cc(C(=O)N2CCN(c3ncnc4[nH]ccc34)CC3(CC3)C2)sn1 [Example 233, (3-methylisothiazol-5-yl)-[5-(7H-pyrrolo[2,3-d]pyrimidin-4-yl)-5,8-diazaspiro[2.6]nonan-8-yl]methanone]
100 to 1000 | > 1000 | > 1000 | Cc1cc(C(=O)N2CCCN(c3ncnc4[nH]ccc34)CC23CC3)sn1 [Example 234, (3-methylisothiazol-5-yl)-[5-(7H-pyrrolo[2,3-d]pyrimidin-4-yl)-5,9-diazaspiro[2.6]nonan-9-yl]methanone]
100 to 1000 | 100 to 1000 | 100 to 1000 | O=C(c1ccns1)N1CCN(c2ncnc3[nH]ccc23)CC2(CC2)C1 [Example 235, isothiazol-5-yl-[5-(7H-pyrrolo[2,3-d]pyrimidin-4-yl)-5,8-diazaspiro[2.6]nonan-8-yl]methanone]
100 to 1000 | 100 to 1000 | 100 to 1000 | O=C(c1cncs1)N1CCN(c2ncnc3[nH]ccc23)CC2(CC2)C1 [Example 239, [5-(7H-pyrrolo[2,3-d]pyrimidin-4-yl)-5,8-diazaspiro[2.6]nonan-8-yl]-thiazol-5-yl-methanone]
100 to 1000 | 100 to 1000 | 100 to 1000 | O=C(c1cncs1)N1CCCN(c2ncnc3[nH]ccc23)CC12CC2 [Example 240, [5-(7H-pyrrolo[2,3-d]pyrimidin-4-yl)-5,9-diazaspiro[2.6]nonan-9-yl]-thiazol-5-yl-methanone]
